Test results from patent US20260234173A1, “STRUCTURED MOLECULAR VECTORS FOR ANTI-INFLAMMATORY COMPOUNDS AND USES THEREOF” (Universite Claude Bernard Lyon 1, priority 2019, published 2026).

Test system: Pilo-SE-induced inflammation in the hippocampus
Test: Resolution of inflammation in hippocampus following pilocarpine-induced status epilepticus (Pilo-SE)
Format: in vivo, rat
Conditions: 2 mg/kg i.p. after 2 h of SE, hippocampus 9 h post-SE
Protocol: Male Sprague-Dawley rats (Envigo, The Netherlands) were subjected to Pilo-SE at 42 days of age (185 g). SE was triggered by pilocarpine hydrochlorate (350 mg/kg, i.p.), 30 min after the administration of scopolamine methylnitrate (1 mg/kg, s.c.), used to reduce peripheral side effects of pilocarpine. After 2 h of continuous SE, rats were administered with diazepam (10 mg/kg, i.p.) to stop SE, and then immediately treated with SYN (2 mg/kg, i.p.), SYN-Pn (2 mg/kg, i.p.) in 300 μL of NaCl. Non-treated rats subjected to Pilo-SE were injected with 300 μL of NaCl (i.p.) instead of SYN or SYN-Pn. All rats received a second administration of diazepam (5 mg/kg, s.c.), 1 h after the first one, and sacrificed 9 h post-SE. The brains were collected, the hippocampus microdissected on ice, the RNA extracted and RT-qPCR performed as described above using the primer pairs shown in Table 1. The time at which rats were sacrificed was chosen based on our preliminary experiments that allowed us to determine that the peak of brain inflammation was observed 7-12 hours after the onset of SE.

Q: With `CCC=CCC=CCC=CCC=CCC=CCC=CCCC(=O)NCCP(=O)(O)O` [synaptamide phosphonate] as the compound, how does the “TNFα-mRNA induction in response to Pilo-SE” value read?
A: The value was “significant effect”.

Q: And the “index integrating IL1β and TNFα: peak of the inflammatory response following Pilo-SE” value?
A: Its value is “improved effect”.

Q: And the “induction of IL1β mRNA in response to Pilo-SE” value (42-day-old rats)?
A: Its value is “reduced”.
